Experimental data reported in US10433548B2, “Biocidal compositions comprising iron chelators” (Arch Chemicals, Inc., priority 2012, dated 2019).
Values after ≈ are worked out from the molar mass of the structure shown. Where two headings read alike, the source gives them in different places.

What was measured:
C. pyrenoidosa = test: Minimum Inhibitory Concentration (MIC) test, 96-well microtiter plate; assay type: cell-based; parameters: unit not given here
R. subcapitata = test: as above; assay type: cell-based; parameters: unit not given here
A. brasiliensis = test: as above; assay type: cell-based; parameters: unit not given here
Method: (§1) Activities of antimicrobial compositions of the present invention were tested against a range of typical skin microorganisms in a Minimum Inhibitory Concentration (MIC) test. MICs for the organisms were determined in a standard 96-well microtiter plate assay in Brain Heart Infusion Broth (BHI) for P. acnes; Tryptic Soy Broth (TSB) for the remaining bacteria; Ushijima Broth for M. furfur; Sabouraud Dextrose Broth (SDB) for other fungi. Samples were tested in duplicate on separate plates. For bacteria and fungi plates, samples were serially diluted into double strength media on the microtiter plates. The bacterial or fungal inocula, suspended in sterile deionized water, were then added to the wells in 1:1 ratio to the medium. The final concentration of bacteria in the wells was 5×10^5 CFUs/mL, the final concentration of fungi was 5×10^4 cells or spores/mL. Plates were incubated: anaerobically at 35° C. for 7 days for P. acnes; aerobically at 35° C. for 2 days for the remaining bacteria and aerobically at 35° C. for 7 days for M. furfur; aerobically at 28° C. for 7 days for T. mentagrophytes.

A. pullulans = test: as above; assay type: cell-based; parameters: unit not given here; settings: concentration of BIT; BIT alone or with potentiator, Molar Eq (Pot:BIT) 10:1
Method: as §1

B. subtilis = test: as above; assay type: cell-based; parameters: unit not given here
Method: as §1

M. furfur = test: as above; assay type: cell-based; parameters: unit not given here
Method: as §1

P. aeruginosa [1] = test: as above; assay type: cell-based; parameters: unit not given here
Method: as §1

P. faveolarum = test: as above; assay type: cell-based; parameters: unit not given here
Method: as §1

S. epidermidis = test: as above; assay type: cell-based; parameters: unit not given here
Method: as §1

T. mentagrophytes = test: as above; assay type: cell-based; parameters: unit not given here
Method: as §1

E. coli [2] = test: as above; assay type: cell-based; settings: Active ZPT alone or plus chelator or chelator + Zn(II); Molar Ratio HBED 10×, 8-HQ 5×, 8-HQ + Zn(II) 1×, 2-HPNO 10×
Method: as §1

P. acnes = test: as above; assay type: cell-based; settings: for MIC: Cutibacterium acnes
Method: as §1

E. coli [3] = test: Time-kill test (microbial reduction); assay type: cell-based; settings: E. coil; for log reduction: from initial microbial population
Method: (§2) Time-kill test were performed to assess microbial reduction by antimicrobial agents, with and without chelators, against S. aureus, P. aeruginosa, and E. coli.
(§3) 100 μL of sample and 100 μL of bacterial suspension at 5×10^5 cells/mL was loaded into the first well of each row in a 96-well plate, mixed and after specific contact time, 10-fold serial dilutions were made using a multichannel pipette by transferring 20 μL into 180 μL of Letheen broth, mixing 10 times. The process was repeated. Thereafter, three replicates of 10 μL from each of the six selected dilutions were plated onto Tryptic Soy Agar using a 2-20 μL monochannel pipette. Plates were allowed to dry, then placed into an incubator at 35° C. for 24 hrs. Colonies (0.5-1 mm) were enumerated using a colony counter.

P. aeruginosa [4] = test: Time-kill test (microbial reduction); assay type: cell-based; settings: for log reduction: from initial microbial population
Method: as §2, §3

S. aureus = test: Time-kill test (microbial reduction); assay type: cell-based; settings: for log reduction: from initial microbial population
Method: as §2, §3

[5] = system: S. aureus, P. aeruginosa, and E. coli; settings: in combination with ZPT
Method: as §2, §3

C. albicans = test: Minimum Inhibitory Concentration (MIC) test, 96-well microtiter plate; assay type: cell-based; parameters: unit not given here; settings: concentration of ZPT; ZPT alone or with potentiator, Molar Eq (Pot:ZPT) 10:1, 8-HQ-Zn 1:1
Method: as §1

[6] = concentration of BIT, BIT alone or with potentiator, Molar Eq (Pot:BIT) 10:1
[7] = Active ZPT alone or plus chelator or chelator + Zn(II), Molar Ratio HBED 10×, 8-HQ 5×, 8-HQ + Zn(II) 1×, 2-HPNO 10×
[8] = concentration of ZPT, ZPT alone or with potentiator, Molar Eq (Pot:ZPT) 10:1, 8-HQ-Zn 1:1

Compound: O=C(O)CN(CCN(CC(=O)O)Cc1ccccc1O)Cc1ccccc1O [HBED, N,N-bis(2-hydroxybenzyl)ethylenediamine-N,N-diacetic acid]
- MIC C. pyrenoidsa (C. pyrenoidosa; [6]): 2.03
- MIC R. subcapitata (R. subcapitata; [6]): 4.06
- MIC A. brasiliensis (A. brasiliensis; [6]): 32.50
- MIC A. pullulans (A. pullulans): 4.06
- MIC B. subtilis (B. subtilis; [6]): 0.51
- MIC M. furfur (M. furfur; [7]): 3.91
- MIC P. aeruginosa (P. aeruginosa [1]; [7]): 62.5
- MIC P. aeruginosa (P. aeruginosa [1]; [6]): 8.13
- MIC P. faveolarum (P. faveolarum; [6]): 4.06
- MIC S. epidermidis (S. epidermidis; [7]): 0.98
- MIC T. mentagrophytes (T. mentagrophytes; [7]): 0.49
- MIC E. Coli (E. coli [2]): 15.63
- MIC values against P. acnes, Benzoyl Peroxide (P. acnes; Benzoyl Peroxide without chelator or with chelator, Molar Eq. HBED 10×, 8-HQ 5×, DTPA 10×, Desferrioxamine 1×): 3.13 ppm
- MIC values against P. acnes, Salicylic Acid (P. acnes; Salicylic Acid without chelator or with chelator, Molar Eq. HBED 10×, 8-HQ 5×, DTPA 10×, Desferrioxamine 1×): 3.13 ppm
- CFU (E. coli [3]; 4 hr contact): 8.3 × 10^5 CFUs/mL
- log reduction (E. coli [3]; 4 hr contact): 2 log
- CFU (E. coli [3]; 8 hr contact): 1.6 × 10^6 CFUs/mL
- log reduction (E. coli [3]; 8 hr contact): 2 log
- CFU (P. aeruginosa [4]; 4 hr contact): >10^7 CFUs/mL
- log reduction (P. aeruginosa [4]; 4 hr contact): 0 log
- CFU (P. aeruginosa [4]; 8 hr contact): 1.6 × 10^5 CFUs/mL
- log reduction (P. aeruginosa [4]; 8 hr contact): 3 log
- CFU (S. aureus; 4 hr contact): 1.4 × 10^6 CFUs/mL
- log reduction (S. aureus; 4 hr contact): 1 log
- CFU (S. aureus; 8 hr contact): 2.3 × 10^5 CFUs/mL
- log reduction (S. aureus; 8 hr contact): 2 log
- ranking of chelators in time-kill studies [5]: best chelator

Compound: zinc pyrithione [ZPT]
- MIC C. pyrenoidsa (C. pyrenoidosa; [8]): 0.24-4
- MIC R. subcapitata (R. subcapitata; [8]): 1.95-4
- MIC A. brasiliensis (A. brasiliensis; [8]): 7.81-15.6
- MIC B. subtilis (B. subtilis; [8]): 1.95-4
- MIC C. albicans (C. albicans): 7.81
- MIC M. furfur (M. furfur; [7]): 1.25-1.95
- MIC M. furfur (M. furfur; [8]): 0.98-4
- MIC P. aeruginosa (P. aeruginosa [1]; [7]): 31.25-62.5
- MIC P. aeruginosa (P. aeruginosa [1]; [8]): 31-62
- MIC P. faveolarum (P. faveolarum; [8]): 0.05-2
- MIC S. epidermidis (S. epidermidis; [7]): 1.95-7.8
- MIC S. epidermidis (S. epidermidis; [8]): 1.95-7.8
- MIC T. mentagrophytes (T. mentagrophytes; [7]): 3.91-5
- MIC T. mentagrophytes (T. mentagrophytes; [8]): 3.91-8
- MIC E. Coli (E. coli [2]): 1.95-7.81
- CFU (E. coli [3]; 4 hr contact): >10^7 CFUs/mL
- log reduction (E. coli [3]; 4 hr contact): 0 log
- CFU (E. coli [3]; 8 hr contact): >10^7 CFUs/mL
- log reduction (E. coli [3]; 8 hr contact): 0 log
- CFU (P. aeruginosa [4]; 4 hr contact): 7.3 × 10^6 CFUs/mL
- log reduction (P. aeruginosa [4]; 4 hr contact): 1 log
- CFU (P. aeruginosa [4]; 8 hr contact): 6.3 × 10^6 CFUs/mL
- log reduction (P. aeruginosa [4]; 8 hr contact): 2 log
- log reduction (S. aureus; 4 hr contact): 1 log
- log reduction (S. aureus; 8 hr contact): 2 log

Compound: Oc1cccc2cccnc12 [8-HQ, 8-hydroxyquinoline]
- MIC M. furfur (M. furfur; [7]): 1.95
- MIC P. aeruginosa (P. aeruginosa [1]; [7]): 125
- MIC S. epidermidis (S. epidermidis; [7]): 0.49
- MIC T. mentagrophytes (T. mentagrophytes; [7]): 7.81
- MIC E. Coli (E. coli [2]): 7.81
- MIC (P. acnes; read-out: MIC values against P. acnes, Benzoyl Peroxide): 0.78 µg/mL (≈ 5.37 µM)
- MIC (P. acnes; read-out: MIC values against P. acnes, Salicylic Acid): 0.78 µg/mL (≈ 5.37 µM)
- CFU (E. coli [3]; 4 hr contact): 8.6 × 10^5 CFUs/mL
- log reduction (E. coli [3]; 4 hr contact): 2 log
- CFU (E. coli [3]; 8 hr contact): 1.2 × 10^6 CFUs/mL
- log reduction (E. coli [3]; 8 hr contact): 2 log
- CFU (P. aeruginosa [4]; 4 hr contact): 2.6 × 10^6 CFUs/mL
- log reduction (P. aeruginosa [4]; 4 hr contact): 1 log
- CFU (P. aeruginosa [4]; 8 hr contact): 3 × 10^5 CFUs/mL
- log reduction (P. aeruginosa [4]; 8 hr contact): 3 log
- CFU (S. aureus; 4 hr contact): 1.6 × 10^5 CFUs/mL
- log reduction (S. aureus; 4 hr contact): 1 log
- CFU (S. aureus; 8 hr contact): 6.3 × 10^5 CFUs/mL
- log reduction (S. aureus; 8 hr contact): 2 log
